| SMILES | melting point |
| --- | --- |
| O=C(O)/C=C/c1ccc(C(c2cc(F)ccc2F)S(=O)(=O)c2ccc(Cl)cc2)nc1 (centres unmarked) [Example 135, (E)-3-[6-[(4-Chlorophenylsulfonyl)(2,5-difluorophenyl)methyl]pyridin-3-yl]acrylic acid] | 236 to 238 °C |
| O=C(O)c1cccc(C(c2cc(F)ccc2F)S(=O)(=O)c2ccc(Cl)cc2)n1 (centres unmarked) [Example 146, 6-[(4-Chlorophenylsulfonyl)(2,5-difluorophenyl)methyl]picolinic acid] | 200 to 201 °C |
| Nc1cccc(C(c2cc(F)ccc2F)S(=O)(=O)c2ccc(Cl)cc2)n1 (centres unmarked) [Example 149, 6-[(4-Chlorophenylsulfonyl)(2,5-difluorophenyl)methyl]pyridin-2-ylamine] | 183 to 184 °C |
| O=S(=O)(c1ccc(Cl)cc1)C(c1cccc(CCc2ccccn2)n1)c1cc(F)ccc1F (centres unmarked) [Example 152, 2-[(4-Chlorophenylsulfonyl)(2,5-difluorophenyl)methyl]-6-(2-pyridin-2-ylethyl)pyridine] | 88 to 89 °C |
| O=C1C(C(c2cc(F)ccc2F)S(=O)(=O)c2ccc(Cl)cc2)CCCN1CCCO (centres unmarked) [Example 153, 3-[(4-Chlorophenylsulfonyl)(2,5-difluorophenyl)methyl]-1-(3-hydroxypropyl)piperidin-2-one] | 120 to 121 °C |
| O=C1CCCN1CCCNc1cc(C(c2cc(F)ccc2F)S(=O)(=O)c2ccc(Cl)cc2)c(Cl)cn1 (centres unmarked) [Example 169, 1-[3-[[5-Chloro-4-[(4-chlorophenylsulfonyl)-(2,5-difluorophenyl)methyl]pyridin-2-yl]amino]propyl]pyrrolidin-2-one] | 78 to 80 °C |
| CC(=O)NCCCNc1cc(C(c2cc(F)ccc2F)S(=O)(=O)c2ccc(Cl)cc2)c(Cl)cn1 (centres unmarked) [Example 174, N-[3-[[5-Chloro-4-[(4-chlorophenylsulfonyl)-(2,5-difluorophenyl)methyl]pyridin-2-yl]amino]propyl]acetamide] | 103 to 105 °C |

More lines, now with the values ahead:

| melting point | SMILES |
| --- | --- |
| 181 to 183 °C | O=S(=O)(c1ccc(Cl)cc1)C(c1cc(F)ccc1F)c1ncc(CO)cc1F (centres unmarked) [Example 125, [6-(4-Chlorophenylsulfonyl)(2,5-difluorophenyl)methyl-5-fluoropyridin-3-yl]methanol] |
| 249 to 251 °C | O=C(O)c1cnc(C(c2cc(F)ccc2F)S(=O)(=O)c2ccc(Cl)cc2)c(F)c1 (centres unmarked) [Example 127, 6-(4-Chlorophenylsulfonyl)(2,5-difluorophenyl)methyl-5-fluoronicotinic acid] |
| 243 to 245 °C | O=C(Nc1nccs1)c1cnc(C(c2cc(F)ccc2F)S(=O)(=O)c2ccc(Cl)cc2)c(F)c1 (centres unmarked) [Example 128, 6-(4-Chlorophenylsulfonyl)(2,5-difluorophenyl)methyl-5-fluoro-N-thiazol-2-ylnicotinamide] |
| 200 to 202 °C | O=C(Nc1ccon1)c1cnc(C(c2cc(F)ccc2F)S(=O)(=O)c2ccc(Cl)cc2)c(F)c1 (centres unmarked) [Example 129, 6-(4-Chlorophenylsulfonyl)(2,5-difluorophenyl)methyl-5-fluoro-N-isoxazol-3-ylnicotinamide] |
| 174 to 176 °C | O=C(O)CCc1cnc(C(c2cc(F)ccc2F)S(=O)(=O)c2ccc(Cl)cc2)c(F)c1 (centres unmarked) [Example 133, 3-[6-(4-Chlorophenylsulfonyl)(2,5-difluorophenyl)methyl-5-fluoropyridin-3-yl]propionic acid] |
| 219 to 220 °C | NC(=O)/C=C/c1ccc(C(c2cc(F)ccc2F)S(=O)(=O)c2ccc(Cl)cc2)nc1 (centres unmarked) [Example 136, (E)-3-[6-[(4-Chlorophenylsulfonyl)(2,5-difluorophenyl)methyl]pyridin-3-yl]acrylamide] |
| 179 to 181 °C | O=C(NCCO)c1ccc(C(c2cc(F)ccc2F)S(=O)(=O)c2ccc(Cl)cc2)nc1 (centres unmarked) [Example 140, 6-[(4-Chlorophenylsulfonyl)(2,5-difluorophenyl)methyl]-N-(2-hydroxyethyl)nicotinamide] |
